Measurements taken from article PMC8400257, “2-Phenoxy-3-Trichloromethylquinoxalines Are Antiplasmodial Derivatives with Activity against the Apicoplast of Plasmodium falciparum” (Pharmaceuticals, 2021).
“Also recorded” adds a separate entry of the source.

Legend:
HepG2 cell line = test: In vitro alkaline comet assay; assay type: cell-based, human
Method: The human hepatocarcinoma cell line HepG2 was obtained from the American Type Culture Collection (ATCC, ref. HB-8065). Cells were cultured in Eagle’s minimum essential medium (EMEM, ref. ATCC®® 30-2003TM) and supplemented with 10% heat-inactivated foetal bovine serum, 100 U/mL penicillin, and 0.1 mg/mL streptomycin (all from Gibco). Cells were maintained at 37 °C in a humidified atmosphere with 5% CO2 and used in passage number 11 to 15. Two concentrations of the compound 3i (3.2 and 16 µM) were tested at 2 different times of incubation (2 and 72 h). Briefly, HepG2 cells were seeded at 1.13 × 10^5 cells/mL in 6-well plates (3 mL of cell suspension per well) and incubated at 37 °C in a humidified atmosphere with 5% CO2. After 24 and 94 h of incubation, cells were treated with different concentrations of the compound or the vehicle (0.5% dimethylsulfoxide, DMSO) for 72 and 2 h, respectively. Additionally, in the 2 h treatment plate, cells in an additional well were treated with 1 mM MMS as positive control for the comet assay. After treatment, medium was removed from the wells and cells were washed with phosphate buffered saline (PBS). Finally, cells were trypsinized and trypsin was neutralized with fresh medium. From this point, cells were kept ice-cold to avoid DNA repair.
The standard alkaline comet assay was employed for the detection of DNA strand breaks (SBs) and alkali-labile sites (ALS) in cells treated with molecule 3i. Trypsinized HepG2 cells were centrifuged at 125 × g for 5 min at 4 °C and resuspended in cold PBS at 1 x 10^6 cells/mL. For the preparation of the agarose gels, 30 µL of cell suspension were mixed with 140 µL of 1% low melting point agarose in PBS at 37 °C and 2 aliquots of 70 µL of cell/agarose mixture were placed on agarose-precoated microscope slides. Each droplet was covered with a 20 × 20 mm coverslip and, after 2–3 min on a cold metal plate, the coverslips were removed. Then, slides were immersed in lysis solution (2.5 M NaCl, 0.1 M Na2EDTA, 0.01 M Tris base, pH 10, and 1% Triton X-100) at 4 °C for 1 h. After lysis, slides were transferred to the electrophoresis tank and incubated for 40 min at 4 °C in the electrophoresis solution (0.3 M NaOH, 1 mM Na2EDTA, pH > 13) to allow DNA unwinding. After that, electrophoresis was carried out at 1 V/cm for 20 min (4 °C). Then, gels were neutralized and washed by immersing the slides in PBS for 10 min and distilled water for another 10 min (both at 4 °C). Gels were then air-dried at room temperature. Comets were stained by adding 30 µL of […] of 4,6- diamidino-2-phenylindole (DAPI) on top of each gel and placing 22 × 22 mm coverslips on top. Slides were incubated with DAPI at room temperature for 30 min before the analysis. The semi-automated image analysis system Comet Assay IV (Instem, Stone, UK) was used to evaluate 50 comets per gel (i.e., 100 comets/condition). The percentage of DNA in tail was the descriptor used for each comet.
The median percentage of DNA in tail for 50 comets was calculated for each of the duplicate gels in each experiment, and the mean of the two medians were then calculated. The mean percentage of DNA in tail of 3 independent experiments and the standard deviation (SD) were calculated.

[1] = In vitro cytotoxicity evaluation HepG2 (MTT); assay type: cell-based, human; details: human, CC50 HepG2 (µM) ± SD
Method: For all molecules, the selectivity index was calculated as following SI = CC50/EC50.
Triplicate assays were performed for each sample. Each plate-well was then microscopically examined for possible precipitate formation before the medium was aspirated from the wells. Next, 100 µL of MTT (3-(4,5-dimethyl-2-thiazolyl)-2,5-diphenyl -2H-tetrazolium bromide) solution (0.5 mg/mL in medium without FBS) was added to each well. […] After this time, the MTT solution was removed and DMSO (100 μL) was added to dissolve the resulting blue formazan crystals. Plates were shaken vigorously (700 rpm) for 10 min. The absorbance was measured at 570 nm with 630 nm as reference wavelength using a BIO-TEK ELx808 Absorbance Microplate Reader (LabX, Midland, ON, Canada). DMSO was used as blank and doxorubicin (purchased from Sigma Aldrich) as positive control. Cell viability was calculated as a percentage of control (cells incubated without compound). […] CC50 values to represent the mean value calculated from three independent experiments.

With `O=[N+]([O-])c1ccc(Oc2nc3ccccc3nc2C(Cl)(Cl)Cl)cc1` [3i, 2-(4-Nitrophenoxy)-3-trichloromethylquinoxaline] the “In vitro comet assay: DNA strand breaks or alkali labile sites (genotoxicity)” value (HepG2 cell line; HepG2, 3.2 and 16 µM, short (2 h) or long (72 h) exposition) was “not genotoxic; also recorded: did not induce DNA strand breaks or alkali labile sites”, the “In vitro comet assay result” value (HepG2 cell line; HepG2, 2 h, 3.2 µM) was “negative” and the “In vitro comet assay result” value (HepG2 cell line; HepG2, 2 h, 16 µM) was “negative”. The “In vitro comet assay result” value (HepG2 cell line; HepG2, 72 h, 3.2 µM) was “negative”, the “In vitro comet assay result” value (HepG2 cell line; HepG2, 72 h, 16 µM) was “negative” and the CC50 at 72 h [1] was 32 ± 6.1 µM.
